In PMC4789278, “Pharmacological inhibition of LSD1 for the treatment of MLL-rearranged leukemia” (Journal of Hematology & Oncology, 2016):
Read-outs that look alike come from different tables or passages of the source.

How the values were obtained:
[1] = test system: gene expression in MV4-11 cells; experiment: Microarray / GSEA; format: cell-based, human; conditions: 7 days
Description: To this end, triplicate samples of MV4-11 cells were treated with compounds 1 and 2 and the RNA of these samples was isolated, amplified, and hybridized to Illumina HT-12 microarrays. The microarray data were log2-transformed and normalized to have the same median values for comparative analysis. Moderate t test was applied to search for genes that were differentially expressed between the control and compound treated samples, using the filter thresholds of p values <0.05 and fold changes >4. […] Next, we used gene set enrichment analysis (GSEA) in an effort to find the possible mechanism(s) for the LSD1 inhibition-mediated antileukemia activity.
For 7 days, 10^5 cells/well were incubated with compounds. Cells were treated with Trizol® Reagent, frozen in liquid nitrogen, and shipped to Asuragen, Inc. (Austin, TX) for microarray experiments. RNA from these samples was isolated, amplified, and hybridized to Illumina Human HT-12 v4 arrays according to the manufacturer’s protocol. Microarray data were log2 transformed and normalized to have the same median for all the arrays. Moderate t statistics were used to find genes that were differentially expressed between the samples of interest. Benjamini and Hochberg method was used to correct for multiple comparisons. […]

[2] = test system: U937 leukemia cells; experiment: Antiproliferation assay (XTT), U937; format: cell-based; conditions: Homo sapiens, U-937, 360 h; 15-day treatment; non-MLL leukemia cells; read-out: U937 EC50 (antiproliferative)
Description: (§1) We next examined the spectrum of antitumor activity for compounds 1–4. These compounds were incubated with a panel of six human leukemia and solid tumor cell lines, including two MLL-rearranged leukemia cells MV4-11 and Molm-13 containing fusion oncogenes MLL-AF4 and -AF9, respectively. […] Also included in the studies are breast cancer MCF-7 and prostate cancer LNCaP cells. […]
(§2) Proliferation inhibition assay for suspension leukemia cells was performed using an XTT assay kit (Roche) with our previously described method. Proliferation inhibition assay for solid tumor cell lines MCF-7 and LNCaP was performed using our previous described MTT assay. The antiproliferation EC50 values were determined by Prism, and the reported results were the mean values of at least three independent experiments.

[3] = test system: NB4 leukemia cells; experiment: Antiproliferation assay (XTT), NB4; format: cell-based; conditions: Homo sapiens, 360 h; 15-day treatment; non-MLL leukemia cells; read-out: NB4 EC50 (antiproliferative)
Description: as §1, §2

[4] = test system: HoxA9 and Meis1 expression in MV4-11 cells; experiment: Quantitative real-time PCR of HoxA9 and Meis1; format: cell-based, human
Description: Next, we examined whether LSD1 inhibition can block the expression of HoxA9 and Meis1, whose overexpression has been observed in MLL-rearranged leukemia.
For 3 days, 10^4 cells/well were incubated with a compound, and the RNA was extracted from cells using RNeasy mini kit (QIAGEN); 100–1000 ng of total RNA was reverse transcribed using iScript™ Reverse Transcription Supermix (Bio-Rad) using the manufacturer’s protocol. Quantitative real-time PCR was carried out using Fast SYBR Green Master Mix (Applied Biosystems) according to the manufacturer’s instructions. Measurements were performed in triplicate, using GAPDH as the reference gene. Real-time PCR was performed using Biosystems Step One Plus detection system. The following sequences of primers are used: […]

[5] = test system: MV4-11 cells; experiment: FACS of differentiation markers CD14 / CD11b; format: cell-based, human; conditions: for cell populations expressing high levels of CD14: treatment for 12 days
Description: Importantly, only these stem-like cancer cells can form new tumors when transplanted into a new host, while the other non-stem cancer cells fail to do so. These stem-like cancer cells are more drug resistant and believed to be responsible for tumor metastasis and relapse. […] CD14 and CD11b are two cell surface proteins characteristic to differentiated macrophages/monocytes. […] Similarly, incubation with 2 led to considerably more CD11b^+ cells (Fig. 3b).
(§3) For Annexin V apoptosis assay, 10^5 cells/well were incubated with increasing concentrations of a compound for 7 or 14 days. Apoptosis was determined using the FITC Annexin V Apoptosis Detection Kit I (BD Bioscience) using the manufacturer’s protocol. For other FACS assays, cells were labeled with fluorochrome-conjugated monoclonal antibodies against human CD14, CD11b, CD45, or CD33 (BD Biosciences) according to the manufacturer’s recommendation. Cells were analyzed using a FACS Calibur (BD Biosciences/Applied Biosystems), and data were processed using the program Flowjo (version7.6.5).

[6] = test system: MV4-11 cells; experiment: FACS-based Annexin-V apoptosis assay; format: cell-based, human
Description: as §3

[7] = test system: prostate cancer LNCaP cells; experiment: Antiproliferation assay (MTT), LNCaP; format: cell-based; conditions: Homo sapiens, 360 h, 15-day treatment, read-out: LNCaP EC50 (antiproliferative)
Description: as §1, §2

[8] = target: T1, human MAO-A (Homo sapiens, UniProt P21397); experiment: MAO-A inhibition (MAO-Glo); format: biochemical
T1 construct: purchased Sigma
T1 sequence (P21397 1-527): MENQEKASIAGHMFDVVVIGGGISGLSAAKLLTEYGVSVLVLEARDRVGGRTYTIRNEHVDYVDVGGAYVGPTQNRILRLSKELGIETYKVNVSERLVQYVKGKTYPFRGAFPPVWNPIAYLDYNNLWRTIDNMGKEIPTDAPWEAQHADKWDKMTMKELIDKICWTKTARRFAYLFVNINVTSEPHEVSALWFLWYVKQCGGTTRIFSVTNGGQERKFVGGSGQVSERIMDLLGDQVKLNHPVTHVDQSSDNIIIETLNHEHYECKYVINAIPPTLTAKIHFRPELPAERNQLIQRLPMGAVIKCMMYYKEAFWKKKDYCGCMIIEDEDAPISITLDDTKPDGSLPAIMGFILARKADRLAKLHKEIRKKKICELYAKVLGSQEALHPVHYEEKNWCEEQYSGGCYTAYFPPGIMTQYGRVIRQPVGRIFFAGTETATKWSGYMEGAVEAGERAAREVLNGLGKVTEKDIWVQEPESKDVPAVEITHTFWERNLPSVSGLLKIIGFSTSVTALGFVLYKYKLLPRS
Description: The cyclopropylamine LSD1 inhibitors were generally derived from MAO-A/-B inhibitor tranylcypromine, an antidepression drug. Because MAO-A and -B play important roles in the degradation of neurotransmitters (e.g., serotonin and dopamine) in the central nervous system, selective inhibition for LSD1 is highly desirable.
Recombinant human MAO-A and -B were purchased from Sigma. The inhibitory activity was determined using MAO-Glo assay kit (Promega). In brief, following the manufacturer’s protocol, assays were performed in 384-well white plates (Corning) using MAO-A or -B (100 nM) with a final volume of 20 μL. Reactions were quenched after 60 min by adding reconstituted luciferin detection reagent (20 μL/well); 20 min after addition of the detection reagent, the luminescence of each well was measured using Beckman DTX-880 microplate reader. IC50 calculation was similar to that of LSD1.

[9] = range covers MAO-A and MAO-B, read-out: IC50 against MAO-A and -B (range over both enzymes)

SMILES	expression of hematopoietic differentiation and pro-apoptotic gene sets (GSEA) [1]	EC50 [2] [µM]	EC50 [3] [µM]	expression of HoxA9 and Meis1 [4]	cell populations expressing high levels of CD14 [5] [%]	apoptosis of MV4-11 cells ([6]; 30 nM, day 7) [%]	apoptosis of MV4-11 cells ([6]; 30 nM, day 14) [%]	apoptosis of MV4-11 cells ([6]; 300 nM, day 7) [%]	apoptosis of MV4-11 cells ([6]; 300 nM, day 14) [%]	EC50 [7] [µM]	IC50 [8, 9] [µM]	IC50 ([8]; read-out: MAO-A IC50) [µM]	CD11b+ cells ([5]; 1 μM) [%]	apoptosis of MV4-11 cells ([6]; 0.1 μM, 7 days) [%]	apoptosis of MV4-11 cells ([6]; 0.1 μM, 14 days) [%]	apoptosis of MV4-11 cells ([6]; 1 μM, 7 days) [%]	apoptosis of MV4-11 cells ([6]; 1 μM, 14 days) [%]
CN1CCN(C(=O)CNC2CC2c2ccc(OCc3ccccc3)cc2)CC1 (stereo not shown) [Compound 1]	significant upregulation	18.9	19.4	significantly decrease the expression of both HoxA9 and Meis1 in a dose-dependent manner	> 90	12	20	13	26	3.7	17.5 to 480	17.5	–	–	–	–	–
CN1CCN(C(=O)CNC2CC2c2ccc(-c3ccc(F)nc3)cc2)CC1 (stereo not shown) [Compound 2]	significant upregulation	34.6	18.9	significantly decrease the expression of both HoxA9 and Meis1 in a dose-dependent manner	> 90	–	–	–	–	10	17.5 to 480	120	19.5	11	13	45	49
